# From patent US9283222B2 (priority 2006, dated 2016)
# Target: Recombinant Human Poly(ADP-Ribose) Polymerase (PARP), PARP-1 (Homo sapiens (Human), UniProt P09874)
# Details: read-out: PARP-1 (Ki); Table 1; text calls the values EC50s
# Protocol: Nicotinamide[2,5′,8-3H]adenine dinucleotide and strepavidin SPA beads were purchased from Amersham Biosiences. […] NAD^+, histone, aminobenzamide, 3-amino benzamide and Calf Thymus DNA (dcDNA) were purchased from Sigma. Stem loop oligonucleotide containing MCAT sequence was obtained from Qiagen. The oligos were dissolved to 1 mM in annealing buffer containing 10 mM Tris HCl pH 7.5, 1 mM EDTA, and 50 mM NaCl, incubated for 5 minutes at 95° C., and annealed at 45° C. for 45 minutes. […] Biotinylated histone H1 was prepared by treating the protein with Sulfo-NHS-LC-Biotin from Pierce. The biotinylation reaction was conducted by slowly and intermittently adding 3 equivalents of 10 mM Sulfo-NHS-LC-Biotin to 100 μM Histone H1 in phosphate-buffered saline, pH 7.5, at 4° C. with gentle vortexing over 1 minute followed by subsequent 4° C. incubation for 1 hour. Streptavidin coated (FlashPlate Plus) microplates were purchased from Perkin Elmer.
# PARP1 assay was conducted in PARP assay buffer containing 50 mM Tris pH 8.0, 1 mM DTT, 4 mM MgCl2. […] Auto reactions utilizing SPA bead-based detection were carried out in 100 μL volumes in white 96 well plates.
# Sequence of Recombinant Human Poly(ADP-Ribose) Polymerase (PARP), PARP-1 (P09874 whole entry): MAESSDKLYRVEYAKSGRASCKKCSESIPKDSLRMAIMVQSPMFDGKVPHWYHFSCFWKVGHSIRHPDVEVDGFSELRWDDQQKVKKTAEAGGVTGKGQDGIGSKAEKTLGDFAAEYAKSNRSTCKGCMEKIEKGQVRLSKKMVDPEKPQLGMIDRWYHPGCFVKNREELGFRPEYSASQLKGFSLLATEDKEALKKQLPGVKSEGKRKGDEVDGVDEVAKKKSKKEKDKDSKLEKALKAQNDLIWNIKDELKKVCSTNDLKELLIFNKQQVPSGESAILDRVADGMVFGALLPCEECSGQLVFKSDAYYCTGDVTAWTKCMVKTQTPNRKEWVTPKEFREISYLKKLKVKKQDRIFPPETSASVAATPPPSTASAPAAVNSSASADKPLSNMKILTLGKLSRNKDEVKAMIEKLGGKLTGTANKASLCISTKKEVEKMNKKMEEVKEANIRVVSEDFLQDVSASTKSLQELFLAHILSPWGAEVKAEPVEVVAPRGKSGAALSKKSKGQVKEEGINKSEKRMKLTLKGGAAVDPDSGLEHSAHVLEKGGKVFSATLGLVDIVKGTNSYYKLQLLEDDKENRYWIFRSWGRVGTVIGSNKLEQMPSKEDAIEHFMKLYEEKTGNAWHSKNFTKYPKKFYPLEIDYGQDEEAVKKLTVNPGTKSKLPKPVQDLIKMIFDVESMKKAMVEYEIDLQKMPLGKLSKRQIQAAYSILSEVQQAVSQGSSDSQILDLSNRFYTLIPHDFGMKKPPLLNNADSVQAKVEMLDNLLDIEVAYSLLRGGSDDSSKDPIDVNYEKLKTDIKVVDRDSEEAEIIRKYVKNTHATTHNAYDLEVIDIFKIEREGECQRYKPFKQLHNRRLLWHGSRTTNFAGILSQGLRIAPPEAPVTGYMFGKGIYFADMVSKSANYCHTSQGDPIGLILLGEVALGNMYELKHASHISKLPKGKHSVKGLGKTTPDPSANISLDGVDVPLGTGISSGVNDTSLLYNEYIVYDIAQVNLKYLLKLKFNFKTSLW
row,Compound,Ki
1,"Cc1cc(F)ccc1NC(=O)c1cccc(Cc2n[nH]c(=O)c3c2CCCC3)c1 [Example 340, N-(4-fluoro-2-methylphenyl)-3-((4-oxo-3,4,5,6,7,8-hexahydrophthalazin-1-yl)methyl)benzamide]",279 nM
2,"Cc1cc(NC(=O)c2cccc(Cc3n[nH]c(=O)c4c3CCCC4)c2)ccc1F [Example 341, N-(4-fluoro-3-methylphenyl)-3-((4-oxo-3,4,5,6,7,8-hexahydrophthalazin-1-yl)methyl)benzamide]",154 nM
3,"Cc1ccc(NC(=O)c2cccc(Cc3n[nH]c(=O)c4c3CCCC4)c2)cc1Br [Example 344, N-(3-bromo-4-methylphenyl)-3-((4-oxo-3,4,5,6,7,8-hexahydrophthalazin-1-yl)methyl)benzamide]",194 nM
4,"Cc1cc(NC(=O)c2cccc(Cc3n[nH]c(=O)c4c3CCCC4)c2)ccc1Br [Example 345, N-(4-bromo-3-methylphenyl)-3-((4-oxo-3,4,5,6,7,8-hexahydrophthalazin-1-yl)methyl)benzamide]",149 nM
5,"COc1cc(NC(=O)c2cccc(Cc3n[nH]c(=O)c4c3CCCC4)c2)cc(C(F)(F)F)c1 [Example 347, N-(3-methoxy-5-(trifluoromethyl)phenyl)-3-((4-oxo-3,4,5,6,7,8-hexahydrophthalazin-1-yl)methyl)benzamide]",337 nM
6,"Cc1cccc(O)c1NC(=O)c1cccc(Cc2n[nH]c(=O)c3c2CCCC3)c1 [Example 348, N-(2-hydroxy-6-methylphenyl)-3-((4-oxo-3,4,5,6,7,8-hexahydrophthalazin-1-yl)methyl)benzamide]",259 nM
7,"Cc1ccc(NC(=O)c2cccc(Cc3n[nH]c(=O)c4c3CCCC4)c2)cc1O [Example 350, N-(3-hydroxy-4-methylphenyl)-3-((4-oxo-3,4,5,6,7,8-hexahydrophthalazin-1-yl)methyl)benzamide]",143 nM
8,"COc1ccc(C)cc1NC(=O)c1cccc(Cc2n[nH]c(=O)c3c2CCCC3)c1 [Example 351, N-(2-methoxy-5-methylphenyl)-3-((4-oxo-3,4,5,6,7,8-hexahydrophthalazin-1-yl)methyl)benzamide]",277 nM
9,"COc1cc(NC(=O)c2cccc(Cc3n[nH]c(=O)c4c3CCCC4)c2)ccc1C [Example 352, N-(3-methoxy-4-methylphenyl)-3-((4-oxo-3,4,5,6,7,8-hexahydrophthalazin-1-yl)methyl)benzamide]",154 nM
10,"CCOc1ccccc1NC(=O)c1cccc(Cc2n[nH]c(=O)c3c2CCCC3)c1 [Example 354, N-(2-ethoxyphenyl)-3-((4-oxo-3,4,5,6,7,8-hexahydrophthalazin-1-yl)methyl)benzamide]",363 nM
11,"COc1ccc(C(C)(C)C)cc1NC(=O)c1cccc(Cc2n[nH]c(=O)c3c2CCCC3)c1 [Example 356, N-(5-tert-butyl-2-methoxyphenyl)-3-((4-oxo-3,4,5,6,7,8-hexahydrophthalazin-1-yl)methyl)benzamide]",180 nM
12,"COc1ccc(NC(C)=O)cc1NC(=O)c1cccc(Cc2n[nH]c(=O)c3c2CCCC3)c1 [Example 357, N-(5-(acetylamino)-2-methoxyphenyl)-3-((4-oxo-3,4,5,6,7,8-hexahydrophthalazin-1-yl)methyl)benzamide]",402 nM
13,"COc1cc(OC)c(NC(=O)c2cccc(Cc3n[nH]c(=O)c4c3CCCC4)c2)cc1Cl [Example 359, N-(5-chloro-2,4-dimethoxyphenyl)-3-((4-oxo-3,4,5,6,7,8-hexahydrophthalazin-1-yl)methyl)benzamide]",151 nM
14,"O=C(Nc1ccc(N2CCCCC2)cc1)c1cccc(Cc2n[nH]c(=O)c3c2CCCC3)c1 [Example 362, 3-((4-oxo-3,4,5,6,7,8-hexahydrophthalazin-1-yl)methyl)-N-(4-piperidin-1-ylphenyl)benzamide]",185 nM
15,"O=C(Nc1ccccc1Nc1ccccc1)c1cccc(Cc2n[nH]c(=O)c3c2CCCC3)c1 [Example 364, N-(2-anilinophenyl)-3-((4-oxo-3,4,5,6,7,8-hexahydrophthalazin-1-yl)methyl)benzamide]",316 nM
16,"Cc1ccccc1CCNC(=O)c1cccc(Cc2n[nH]c(=O)c3c2CCCC3)c1 [Example 376, N-(2-(2-methylphenyl)ethyl)-3-((4-oxo-3,4,5,6,7,8-hexahydrophthalazin-1-yl)methyl)benzamide]",173 nM

# The next compounds have a lower Ki than those just listed; values first:
row,Ki,Compound
1,136 nM,"Cc1ccc(NC(=O)c2cccc(Cc3n[nH]c(=O)c4c3CCCC4)c2)c(F)c1 [Example 338, N-(2-fluoro-4-methylphenyl)-3-((4-oxo-3,4,5,6,7,8-hexahydrophthalazin-1-yl)methyl)benzamide]"
2,120 nM,"Cc1ccc(NC(=O)c2cccc(Cc3n[nH]c(=O)c4c3CCCC4)c2)cc1F [Example 339, N-(3-fluoro-4-methylphenyl)-3-((4-oxo-3,4,5,6,7,8-hexahydrophthalazin-1-yl)methyl)benzamide]"
3,134 nM,"Cc1ccc(NC(=O)c2cccc(Cc3n[nH]c(=O)c4c3CCCC4)c2)cc1Cl [Example 342, N-(3-chloro-4-methylphenyl)-3-((4-oxo-3,4,5,6,7,8-hexahydrophthalazin-1-yl)methyl)benzamide]"
4,87 nM,"Cc1cc(NC(=O)c2cccc(Cc3n[nH]c(=O)c4c3CCCC4)c2)ccc1Cl [Example 343, N-(4-chloro-3-methylphenyl)-3-((4-oxo-3,4,5,6,7,8-hexahydrophthalazin-1-yl)methyl)benzamide]"
5,33 nM,"COc1ccc(NC(=O)c2cccc(Cc3n[nH]c(=O)c4c3CCCC4)c2)cc1F [Example 346, N-(3-fluoro-4-methoxyphenyl)-3-((4-oxo-3,4,5,6,7,8-hexahydrophthalazin-1-yl)methyl)benzamide]"
6,55 nM,"Cc1c(O)cccc1NC(=O)c1cccc(Cc2n[nH]c(=O)c3c2CCCC3)c1 [Example 349, N-(3-hydroxy-2-methylphenyl)-3-((4-oxo-3,4,5,6,7,8-hexahydrophthalazin-1-yl)methyl)benzamide]"
7,59 nM,"COc1ccc(NC(=O)c2cccc(Cc3n[nH]c(=O)c4c3CCCC4)c2)cc1O [Example 353, N-(3-hydroxy-4-methoxyphenyl)-3-((4-oxo-3,4,5,6,7,8-hexahydrophthalazin-1-yl)methyl)benzamide]"
8,92 nM,"CCCOc1ccc(NC(=O)c2cccc(Cc3n[nH]c(=O)c4c3CCCC4)c2)cc1 [Example 355, 3-((4-oxo-3,4,5,6,7,8-hexahydrophthalazin-1-yl)methyl)-N-(4-propoxyphenyl)benzamide]"
9,66 nM,"O=C(Nc1ccc2c(c1)OCCO2)c1cccc(Cc2n[nH]c(=O)c3c2CCCC3)c1 [Example 358, N-2,3-dihydro-1,4-benzodioxin-6-yl-3-((4-oxo-3,4,5,6,7,8-hexahydrophthalazin-1-yl)methyl)benzamide]"
10,94 nM,"CSc1cccc(NC(=O)c2cccc(Cc3n[nH]c(=O)c4c3CCCC4)c2)c1 [Example 360, N-(3-(methylthio)phenyl)-3-((4-oxo-3,4,5,6,7,8-hexahydrophthalazin-1-yl)methyl)benzamide]"
11,76 nM,"CSc1ccc(NC(=O)c2cccc(Cc3n[nH]c(=O)c4c3CCCC4)c2)cc1 [Example 361, N-(4-(methylthio)phenyl)-3-((4-oxo-3,4,5,6,7,8-hexahydrophthalazin-1-yl)methyl)benzamide]"
12,132 nM,"O=C(Nc1ccc(N2CCOCC2)cc1)c1cccc(Cc2n[nH]c(=O)c3c2CCCC3)c1 [Example 363, N-(4-morpholin-4-ylphenyl)-3-((4-oxo-3,4,5,6,7,8-hexahydrophthalazin-1-yl)methyl)benzamide]"
13,120 nM,"COc1ccc(Nc2ccc(NC(=O)c3cccc(Cc4n[nH]c(=O)c5c4CCCC5)c3)cc2)cc1 [Example 365, N-(4-((4-methoxyphenyl)amino)phenyl)-3-((4-oxo-3,4,5,6,7,8-hexahydrophthalazin-1-yl)methyl)benzamide]"
14,23 nM,"O=C(Nc1ccc2ncccc2c1)c1cccc(Cc2n[nH]c(=O)c3c2CCCC3)c1 [Example 366, 3-((4-oxo-3,4,5,6,7,8-hexahydrophthalazin-1-yl)methyl)-N-quinolin-6-ylbenzamide]"
15,45 nM,"O=C(Nc1cccc2c(O)cccc12)c1cccc(Cc2n[nH]c(=O)c3c2CCCC3)c1 [Example 367, N-(5-hydroxy-1-naphthyl)-3-((4-oxo-3,4,5,6,7,8-hexahydrophthalazin-1-yl)methyl)benzamide]"
16,56 nM,"O=C(Nc1ccc2cn[nH]c2c1)c1cccc(Cc2n[nH]c(=O)c3c2CCCC3)c1 [Example 368, N-1H-indazol-6-yl-3-((4-oxo-3,4,5,6,7,8-hexahydrophthalazin-1-yl)methyl)benzamide]"
17,14 nM,O=C1CC[C@@H]2COc3ccc(Cc4n[nH]c(=O)c5c4CCCC5)cc3N12 [Example 371]
18,51 nM,"O=C(NCCc1ccccc1)c1cccc(Cc2n[nH]c(=O)c3c2CCCC3)c1 [Example 375, 3-((4-oxo-3,4,5,6,7,8-hexahydrophthalazin-1-yl)methyl)-N-(2-phenylethyl)benzamide]"
19,42 nM,"Cc1cccc(CCNC(=O)c2cccc(Cc3n[nH]c(=O)c4c3CCCC4)c2)c1 [Example 377, N-(2-(3-methylphenyl)ethyl)-3-((4-oxo-3,4,5,6,7,8-hexahydrophthalazin-1-yl)methyl)benzamide]"
20,28 nM,"Cc1ccc(CCNC(=O)c2cccc(Cc3n[nH]c(=O)c4c3CCCC4)c2)cc1 [Example 378, N-(2-(4-methylphenyl)ethyl)-3-((4-oxo-3,4,5,6,7,8-hexahydrophthalazin-1-yl)methyl)benzamide]"
21,20 nM,"O=C(NCCc1ccccn1)c1cccc(Cc2n[nH]c(=O)c3c2CCCC3)c1 [Example 379, 3-((4-oxo-3,4,5,6,7,8-hexahydrophthalazin-1-yl)methyl)-N-(2-pyridin-2-ylethyl)benzamide]"
22,71 nM,"O=C(NCCc1cccnc1)c1cccc(Cc2n[nH]c(=O)c3c2CCCC3)c1 [Example 380, 3-((4-oxo-3,4,5,6,7,8-hexahydrophthalazin-1-yl)methyl)-N-(2-pyridin-3-ylethyl)benzamide]"
23,67 nM,"O=C(NCCc1ccncc1)c1cccc(Cc2n[nH]c(=O)c3c2CCCC3)c1 [Example 381, 3-((4-oxo-3,4,5,6,7,8-hexahydrophthalazin-1-yl)methyl)-N-(2-pyridin-4-ylethyl)benzamide]"
